pIC50: −log10 of the molar value. “And” between values parts separate entries of the source, which are not always exact repeats. Identical values can stand only once. The source made the active and inactive calls. No rule for the calls is given here.
Each compound was assayed against Neutrophil cytosol factor 1 (Homo sapiens) (UniProt P14598) (assay: blockers of ligand binding to p47phox – biochemical, NADPH oxidase regulatory subunit, fluorescence polarization, dose response (AID 1275)). Settings: p47phox binding inhibition.
Chain of Neutrophil cytosol factor 1 (Homo sapiens) (P14598 whole entry, looked up): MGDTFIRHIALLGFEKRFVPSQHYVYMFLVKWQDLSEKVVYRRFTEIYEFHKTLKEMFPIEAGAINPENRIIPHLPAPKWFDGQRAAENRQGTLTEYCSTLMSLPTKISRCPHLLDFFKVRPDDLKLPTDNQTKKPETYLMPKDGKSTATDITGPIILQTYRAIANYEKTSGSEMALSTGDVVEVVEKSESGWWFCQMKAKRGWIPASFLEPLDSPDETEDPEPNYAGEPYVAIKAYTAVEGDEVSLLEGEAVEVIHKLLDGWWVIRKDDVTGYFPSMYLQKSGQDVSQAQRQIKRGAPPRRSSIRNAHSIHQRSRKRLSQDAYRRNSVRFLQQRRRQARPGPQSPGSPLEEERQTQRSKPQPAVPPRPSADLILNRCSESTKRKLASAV

| SMILES | IC50 | pIC50 |
| --- | --- | --- |
| Clc1ccc(/C=N/Nc2nc(Cl)nc3ccccc23)cc1 | > 50 µM (inactive) |  |
| COc1ccc(N=C2O/C(=C/c3sc(=S)n(CC4CCCO4)c3O)N=C2C#N)cc1 (stereo not given) |  | 4.79 |
| CCOC(=O)C(=CNc1ccc(Oc2cccnc2)nc1)C(=O)OCC | > 50 µM (inactive) |  |
| CCOC(=O)c1ccc(N2C(=O)CC(Nc3ccc(O)cc3)C2=O)cc1 (stereo not given) |  | 4.62 |
| Cc1ccc(/C=N/Nc2ccnc3cc(Cl)ccc23)c(C)c1 | > 50 µM (inactive) |  |
| O=c1cnnc(N/N=C/c2c[nH]c3ccccc23)[nH]1 | > 50 µM (inactive) |  |
| CCOc1ccc(-n2c(SCC(=O)Nc3ccc(Br)cc3)nc3n[nH]c(C)c3c2=N)cc1 | > 50 µM (inactive) |  |
| CCOC(=O)C1=C(COc2ccc(C)cc2)NC(=O)NC1c1cc(C)ccc1C (stereo not given) | > 50 µM (inactive) |  |
| O=C1Nc2ccccc2/C1=N/N=C/c1ccc(-c2ccc([N+](=O)[O-])cc2)o1 | > 50 µM (inactive) |  |
| Cc1ccccc1NC(=O)Cn1c(O)c(N=NC(=O)c2ccccc2O)c2ccccc21 | > 50 µM (inactive) |  |
| CC(C)N1CC2=C(OC(N)=C(C#N)C2c2cccnc2)/C(=C/c2cccnc2)C1 (stereo not given) | inactive |  |
| O=C(Cn1c(O)c(/C=C2\C=Nc3ccc(Br)cc32)sc1=O)N1CCCC1 | > 50 µM (inactive) |  |
| CCOC(=O)C1=C(O)CSC1=Nc1ccc(Cl)cc1 | > 50 µM (inactive) |  |
| COc1ccc(C2C(C(=O)c3ccccc3)=C(C)Nc3nc4ccccc4n32)cc1OC (stereo not given) | > 50 µM (inactive) |  |
| N#CC(=C=[N-])c1nc2ccccc2nc1-[n+]1cccc(NC(=O)c2ccccc2)c1 | > 50 µM (inactive) and 24.2 µM |  |
| CCN=C(Nc1ccc2c(c1)OCO2)SC1CC(=O)N(c2ccccc2F)C1=O (stereo not given) | > 50 µM (inactive) |  |
| CCOc1ccc(C2CC(c3c(O)n(C)c(=O)n(C)c3=O)=NN2)cc1 (stereo not given) | > 50 µM (inactive) |  |
| N#CC(=C=[N-])c1nc2ccccc2nc1-[n+]1cccc(NC(=O)c2cccs2)c1 |  | 4.83 |
| O=[N+]([O-])c1ccc(N=Cc2c(O)ccc3ccccc23)cc1 |  | 5.34 |
| CCOC(=O)C1=C(O)c2ccccc2C(=O)/C1=C\c1ccc(CC)cc1 | > 50 µM (inactive) |  |
| COC(=O)c1cc(C(=O)OC)cc(N2C(=O)CC(NNC(=O)c3ccc(C)cc3)C2=O)c1 (stereo not given) | > 50 µM (inactive) |  |
| O=c1[nH]c(=S)[nH]c(O)c1N=Nc1ccc(-c2ccccc2)cc1[N+](=O)[O-] |  | 5.09 |
| CN(C)CC(C)(C)CN=Cc1c(O)[nH]c2ccccc12 | > 50 µM (inactive) |  |
| Cc1cccc(N=Nc2c(C)c(C#N)c(O)[nH]c2=O)c1 | > 50 µM (inactive) |  |
| N#CC1=C(N)OC2=C(CN(Cc3ccccc3)C/C2=C\c2cccnc2)C1c1cccnc1 (stereo not given) |  | 5.46 |

| SMILES | IC50 | pIC50 |
| --- | --- | --- |
| O=C(N=Nc1c(O)[nH]c2ccc(Br)cc12)c1cc(-c2cccs2)nc2ccccc12 | > 50 µM (inactive) |  |
| COCc1cc(C)nc(N/N=C/c2ccc(-c3ccc(Cl)cc3[N+](=O)[O-])o2)c1C#N | > 50 µM (inactive) |  |
| CC1CCCCN1C(=O)C12CCC(C)(/C(=N/O)C1)C2(C)C (stereo not given) | > 50 µM (inactive) |  |
| CCOC(=O)/C(C)=C1\NC(C)(C)Cc2ccccc21 | > 50 µM (inactive) |  |
| Cc1ccc(-n2c(O)c(/C=N/Nc3ccccc3)c(=O)[nH]c2=O)cc1C | > 50 µM (inactive) |  |
| COc1ccc(N2C(=O)CNC2=S)cc1 | > 50 µM (inactive) |  |
| O=C(N=Nc1c(O)n(C2OC(=O)c3ccccc32)c2ccccc12)c1ccco1 (stereo not given) | > 50 µM (inactive) |  |
| COc1ccc(-c2cn[nH]c2-c2ccc(OCc3ccc([N+](=O)[O-])cc3)cc2O)cc1 | > 50 µM (inactive) |  |
| Oc1[nH]c(=S)sc1/C=C1\C(c2ccccc2)=Nc2ccccc21 | inactive |  |
| CCc1cc2c(=O)nc3n(c2s1)Cc1ccccc1/C3=C(/O)c1ccccc1Cl | > 50 µM (inactive) |  |
| CC1(C)CC(=O)C2=C(C1)Nc1cc3c(cc1C2c1ccc2c(c1)OCO2)OCO3 (stereo not given) | > 50 µM (inactive) |  |
| CCOc1ccc2c(c1)C(c1cccs1)=NNC(c1cccnc1)=N2 | > 50 µM (inactive) |  |
| Cn1c(O)c(/C=C2\N=c3ccccc3=C2CCNC(=S)NC2CC2)c(=O)n(C)c1=O |  | 4.85 |
| Cc1ccc(C(=O)C2=C(O)C(=O)N(Cc3ccccc3)C2c2cccnc2)o1 (stereo not given) | > 50 µM (inactive) |  |
| O=c1oc2ccccc2c(O)c1/C=C1\C=Nc2ccccc21 | > 50 µM (inactive) |  |
| COc1cc(/C=N/NC(=O)c2ccc(CN3c4cccc5cccc(c45)S3(=O)=O)cc2)cc(OC)c1O | > 50 µM (inactive) |  |
| CCOc1ccc(N/C=C/C(=O)c2ccc(C)cc2)c([N+](=O)[O-])c1 | > 50 µM (inactive) |  |
| COc1ccc(C2C(C#N)=C(N)Oc3cc4c(cc32)OCO4)cc1 (stereo not given) | > 50 µM (inactive) |  |
| COc1ccc(-c2cnnc(N/N=C/c3ccc(-c4ccc([N+](=O)[O-])cc4)o3)n2)cc1 | > 50 µM (inactive) |  |
| CSc1sc(C)cc1C1C(C#N)=C(N)N(c2cccnc2)C2=C1C(=O)CCC2 (stereo not given) | > 50 µM (inactive) |  |
| C/C(N)=C(/C#N)C(=O)CSc1nnc(-c2ccc3c(c2)OCO3)o1 | > 50 µM (inactive) |  |
| Nc1cc(Cl)ccc1N1C(=O)CCC1=O | > 50 µM (inactive) |  |
| C=CCNC(=S)N1CCN(CCN=CC2=C(O)CC(c3ccco3)CC2=O)CC1 (stereo not given) | > 50 µM (inactive) |  |
| Cc1nc2ccccc2n2c(O)c(CC(=O)O)cc12 | inactive |  |
| C/C(=N\Nc1ccc(S(N)(=O)=O)cc1[N+](=O)[O-])c1ccc2c(c1)OCO2 | > 50 µM (inactive) |  |

| SMILES | IC50 | pIC50 |
| --- | --- | --- |
| O=[N+]([O-])c1ccc(N/N=C\c2cccn2-c2ccccc2)nc1 | > 50 µM (inactive) |  |
| Cc1cccc(NC(=O)Cn2c(O)c(N=NC(=O)c3ccccc3O)c3ccccc32)c1 | > 50 µM (inactive) |  |
| Cc1ccc(/C(CSc2nccn2-c2ncc(C(F)(F)F)cc2Cl)=N\O)cc1 | > 50 µM (inactive) |  |
| O=C1CCCC(O)=C1N=Nc1ccc(C(=O)O)cc1 | > 50 µM (inactive) |  |
| Cc1ccc(C(NC(=O)N2CCOCC2)=C(Cl)Cl)cc1F | > 50 µM (inactive) |  |
| COc1nc(N/N=C/c2ccc(-c3cccc([N+](=O)[O-])c3)o2)nc(N2CCOCC2)n1 | > 50 µM (inactive) |  |
| O=C(N=Nc1c(O)n(Cc2ccccc2)c2ccccc12)c1cc2ccccc2cc1O | > 50 µM (inactive) |  |
| CC1=C(C#N)c2nc(N)c(C#N)c(C)c2/C1=C\c1ccc(-c2ccccc2C(=O)O)o1 |  | 4.57 |
| O=C1OCC=C1NNC(=O)c1cccnc1 | > 50 µM (inactive) |  |
| CC(=O)N1C(=O)C2(C(C#N)=C(N)Oc3n[nH]c(-c4ccccn4)c32)c2ccccc21 (stereo not given) | > 50 µM (inactive) |  |
| Cc1cc2c(C)nc(N/N=C/c3ccc([N+](=O)[O-])cc3)nc2o1 | > 50 µM (inactive) |  |
| CCN(CC)c1ccc(/C=N/c2sc3c(c2C#N)C2CCN3CC2)c(O)c1 |  | 5.16 |
| CCOC(=O)C1=C(c2ccccc2)NC(N)=NC1c1ccc(OCc2ccc(C(=O)OC)cc2)cc1 (stereo not given) |  | 5.16 |
| C[c-]1[c-](C)[c-](C)[c-](C)[c-]1C.[Fe].c1cc2nccc(N3CCCC3)[c-]2c1 (stereo not given) | > 50 µM (inactive) |  |
| O=c1[nH]c(O)c(/C=C2/C=CC(c3cc(Cl)ccc3Cl)=N2)c(=O)[nH]1 | > 50 µM (inactive) |  |
| N=C1CCC(=N)c2c1c(O)c1ccccc1c2O |  | 6.17 |
| N#Cc1ccc(N/N=C/c2cn(-c3ccccc3)nc2-c2ccccc2)c([N+](=O)[O-])c1 | > 50 µM (inactive) |  |
| CN(C)c1ccnc2c[cH-]cc12.[Fe].c1ccc(-[c-]2[c-](-c3ccccc3)[c-](-c3ccccc3)[c-](-c3ccccc3)[c-]2-c2ccccc2)cc1 (stereo not given) |  | 4.86 and 5.56 |
| CCOc1ccc(N/C=C/C(=O)c2ccccc2)c([N+](=O)[O-])c1 | > 50 µM (inactive) |  |
| CC(C)Cc1ccc(/C(=N/O)C(=O)O)s1 | > 50 µM (inactive) |  |
| CC1=NN(c2ccccc2)C(=O)/C1=C/C=C/c1ccc(N(C)C)cc1 | > 50 µM (inactive) |  |
| O=C(N=Nc1c(O)[nH]c2ccc(Cl)cc12)c1cc(-c2cccs2)nc2ccccc12 | > 50 µM (inactive) |  |
| C(=N\Nc1nc(Nc2ccccc2)nc(N2CCCCC2)n1)/c1ccco1 | > 50 µM (inactive) |  |
| Cc1ccc(NC(=O)Cn2c(O)c(N=NC(=O)c3cc4ccccc4cc3O)c3ccccc32)cc1 | > 50 µM (inactive) |  |
| CCOC(=O)C1=C(c2ccccc2)NC(N)=NC1c1ccc(OCc2ccc(Cl)cc2)c(OC)c1 (stereo not given) |  | 5.38 |
